Results published in PubChem BioAssay (NCI).
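Where inhibition never reached the appropriate level, the endpoint shown equals the highest concentration tested. Otherwise, values were interpolated linearly from a five-concentration, 48-hour dose response in 96-well plates. Abbreviation: GI50, concentration required for 50% inhibition of growth. TGI is the concentration that stops growth completely.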

Key:
Experiment in all cases: NCI anticancer screen, dose series, 48 h
[1] = test system: 786-0 renal
[2] = test system: A498 renal
[3] = test system: A549 NSCLC
[4] = test system: ACHN renal
[5] = test system: BT-549 breast
[6] = test system: CAKI-1 renal
[7] = test system: CCRF-CEM leukemia
[8] = test system: COLO 205 colon
[9] = test system: DU-145 prostate
[10] = test system: EKVX NSCLC
[11] = test system: HCC-2998 colon
[12] = test system: HCT-116 colon
[13] = test system: HCT-15 colon
[14] = test system: HL-60(TB) leukemia
[15] = test system: HOP-62 NSCLC
[16] = test system: HOP-92 NSCLC
[17] = test system: HS 578T breast
[18] = test system: HT29 colon
[19] = test system: IGROV1 ovarian
[20] = test system: K-562 leukemia
[21] = test system: KM12 colon
[22] = test system: LOX IMVI melanoma
[23] = test system: M14 melanoma
[24] = test system: MALME-3M melanoma
[25] = test system: MCF7 breast
[26] = test system: MDA-MB-231 breast
[27] = test system: MDA-MB-435
[28] = test system: MOLT-4 leukemia
[29] = test system: NCI-H226 lung
[30] = test system: NCI-H23 lung
[31] = test system: NCI-H460 lung
[32] = test system: NCI-H522 lung
[33] = test system: NCI/ADR-RES ovarian
[34] = test system: OVCAR-3 ovarian
[35] = test system: OVCAR-4 ovarian
[36] = test system: OVCAR-5 ovarian
[37] = test system: OVCAR-8 ovarian
[38] = test system: PC-3 prostate
[39] = test system: RPMI-8226 leukemia
[40] = test system: RXF 393 renal
[41] = test system: SF-268 CNS
[42] = test system: SF-295 CNS
[43] = test system: SF-539 CNS
[44] = test system: SK-MEL-2 melanoma
[45] = test system: SK-MEL-28 melanoma
[46] = test system: SK-MEL-5 melanoma
[47] = test system: SK-OV-3 ovarian
[48] = test system: SN12C renal
[49] = test system: SNB-19 CNS
[50] = test system: SNB-75 CNS
[51] = test system: SR leukemia
[52] = test system: SW-620 colon
[53] = test system: T-47D breast
[54] = test system: TK-10 renal
[55] = test system: U251 CNS
[56] = test system: UACC-257 melanoma
[57] = test system: UACC-62 melanoma
[58] = test system: UO-31 renal

O=C(Nc1ccc(-n2ccc3c(NC(=O)c4ccccc4)nccc32)cc1)Nc1ccc(Cl)c(Cl)c1
GI50 [1]: 1010 nM
TGI [1]: 2360 nM
GI50 [2]: 2580 nM
TGI [2]: 7580 nM
GI50 [3]: 1010 nM
TGI [3]: 2570 nM
GI50 [4]: 1220 nM
TGI [4]: 4290 nM
GI50 [5]: 3080 nM
TGI [5]: 17900 nM
GI50 [6]: 1650 nM
TGI [6]: 6880 nM
GI50 [7]: 252 nM
TGI [7]: 1930 nM
GI50 [8]: 1420 nM
TGI [8]: 3270 nM
GI50 [9]: 1570 nM
TGI [9]: 3920 nM
GI50 [10]: 4830 nM
TGI [10]: 44000 nM
GI50 [11]: 1470 nM
TGI [11]: 3650 nM
GI50 [12]: 488 nM
TGI [12]: 1740 nM
GI50 [13]: 201 nM
TGI [13]: 2840 nM
GI50 [14]: 1250 nM
TGI [14]: 4220 nM
GI50 [15]: 1310 nM
TGI [15]: 2750 nM
GI50 [16]: 1230 nM
TGI [16]: 4610 nM
GI50 [17]: 791 nM
TGI [17]: 3470 nM
GI50 [18]: 664 nM
TGI [18]: 2330 nM
GI50 [19]: 1760 nM
TGI [19]: 11000 nM
GI50 [20]: 736 nM
TGI [20]: > 100000 nM
GI50 [21]: 985 nM
TGI [21]: 2500 nM
GI50 [22]: 503 nM
TGI [22]: 2280 nM
GI50 [23]: 1470 nM
TGI [23]: 2930 nM
GI50 [24]: 1700 nM
TGI [24]: 3780 nM
GI50 [25]: 1100 nM
TGI [25]: 2370 nM
GI50 [26]: 1230 nM
TGI [26]: 2820 nM
GI50 [27]: 1310 nM
TGI [27]: 2810 nM
GI50 [28]: 908 nM
TGI [28]: 8560 nM
GI50 [29]: 15900 nM
TGI [29]: 97700 nM
GI50 [30]: 5200 nM
TGI [30]: 28600 nM
GI50 [31]: 358 nM
TGI [31]: 1780 nM
GI50 [32]: 1450 nM
TGI [32]: 3700 nM
GI50 [33]: 1310 nM
TGI [33]: 4520 nM
GI50 [34]: 1340 nM
TGI [34]: 2750 nM
GI50 [35]: 1550 nM
TGI [35]: 3860 nM
GI50 [36]: 3520 nM
TGI [36]: 32900 nM
GI50 [37]: 1260 nM
TGI [37]: 3700 nM
GI50 [38]: 1060 nM
TGI [38]: > 26600 nM
GI50 [39]: 482 nM
TGI [39]: 3080 nM
GI50 [40]: 624 nM
TGI [40]: 1960 nM
GI50 [41]: 1260 nM
TGI [41]: 5970 nM
GI50 [42]: 877 nM
TGI [42]: 3180 nM
GI50 [43]: 557 nM
TGI [43]: 2410 nM
GI50 [44]: 1980 nM
TGI [44]: 4870 nM
GI50 [45]: 1490 nM
TGI [45]: 3070 nM
GI50 [46]: 748 nM
TGI [46]: 2200 nM
GI50 [47]: 1200 nM
TGI [47]: 3290 nM
GI50 [48]: 2010 nM
TGI [48]: 9080 nM
GI50 [49]: 1130 nM
TGI [49]: 4400 nM
GI50 [50]: 489 nM
TGI [50]: 2340 nM
GI50 [51]: 132 nM
TGI [51]: 932 nM
GI50 [52]: 1080 nM
TGI [52]: 2510 nM
GI50 [53]: 2030 nM
TGI [53]: 5330 nM
GI50 [54]: 1820 nM
TGI [54]: 5290 nM
GI50 [55]: 373 nM
TGI [55]: 1920 nM
GI50 [56]: 1960 nM
TGI [56]: 4520 nM
GI50 [57]: 1230 nM
TGI [57]: 2830 nM
GI50 [58]: 1600 nM
TGI [58]: 4100 nM
